Laboratory results from article PMC6099591, “(2E,5E)-2,5-Bis(3-hydroxy-4-methoxybenzylidene) cyclopentanone Exerts Anti-Melanogenesis and Anti-Wrinkle Activities in B16F10 Melanoma and Hs27 Fibroblast Cells” (Molecules : A Journal of Synthetic Chemistry and Natural …, 2018).

What was measured:
[1] = system: cellular tyrosinase in B16F10 melanoma cells; experiment: Cellular tyrosinase activity assay in α-MSH-induced B16F10 cells; assay type: cell-based, murine; conditions: 24 h pretreatment then α-MSH (5 µM) 48 h, α-MSH only control 181%
Protocol: (§1) Figure 4 Inhibition of melanin contents (a) and cellular tyrosinase activity (b) of BHCP on B16F10 melanoma cells. […] Melanin content of the pellet was evaluated at 405 nm (a); intracellular tyrosinase activity was determined with L-DOPA as the substrate, and the absorbance of L-DOPA chrome was read at 492 nm (b). Data are expressed as mean ± S.E.M of three independent experiments. One-way ANOVA was used to determine the significances of differences: ^# p < 0.05 compared to the control group without α-MSH treatment. ** p < 0.01 and * p < 0.05 compared to the α-MSH-treated control group.
Cellular tyrosinase activity assay was performed by measuring the rate of oxidation of L-DOPA [35]. B16F10 cells at a density of 5 × 10^4/cells were placed in 6-well dishes and incubated overnight. […] The cells were washed with PBS and lysed in a solution containing 100 µL of 50 mM phosphate buffer (pH 6.5), 0.1 mM phenylmethylsulfonylfluoride (PMSF), and 1% Triton X-100. Then, the cells were placed in a deep freezer machine (−80 °C) for 30 min. After defrosting the cells, the cellular extracts were purified by centrifugation at 12,000 rpm for 30 min at 4 °C. A total of 80 µL the supernatant and 20 µL of L-DOPA (2 mg/mL) were added to a 96-well plate, and the absorbance at a wavelength of 492 nm was measured every 10 min during 1 h at 37 °C with an ELISA plate reader (TECAN, Salzburg, Austria).

MITF = experiment: Western blot, MITF protein level in α-MSH-stimulated B16F10 cells; assay type: cell-based, murine; conditions: 1 and 10 µM, 24 h, then α-MSH (5 µM) 48 h; normalized by β-actin
Protocol: (§2) Figure 5 Effects of BHCP on the expression levels of phosphorylation of CREB, MITF, and tyrosinase in α-MSH-stimulated B16F10 melanoma cells. Cells were preincubated with or without 1 and 10 μM BHCP for 24 h and were stimulated with α-MSH (5 μM) for an additional 48 h. Harvested cells were lysed and then examined for the expression levels of p-CREB, CREB, MITF, and tyrosinase by Western blotting (a); The protein levels of tyrosinase (b); MITF (c); and p-CREB (d) were quantitated with CS analyzer software. Tyrosinase, MITF, and p-CREB protein levels were normalized by β-actin. Data are expressed as mean ± S.E.M. of three independent experiments. ^# p < 0.05 versus untreated control; * p < 0.05 versus α-MSH stimulation.
(§3) Lysate samples were boiled for 10 min in gel-loading buffer (125 mM Tris-HCl, 4% sodium dodecyl sulfate (SDS), 10% 2-mercaptoethanol, and 0.2% bromophenol blue; pH 6.8) at a volume ratio of 1:1. The total protein equivalents for each sample were separated by SDS-polyacrylamide gel electrophoresis (PAGE) using acrylamide gels as based on the procedure described by Laemmli and transferred to PVDF membranes at 80 V for 2 h using the wet-transfer system. […] Antibody labeling was detected by enhanced chemiluminescence in accordance with the manufacturer’s instructions. Protein quantitation was performed using the Davinch-Chemi TM. […]

MMP-12 = experiment: Western blot, MMP-12 expression in UV-induced Hs27 cells; assay type: cell-based, human; conditions: 1 and 10 µM, 24 h, then UV (50 mJ/cm2) 24 h
Protocol: (§4) Figure 7 Effects of BHCP on the expression levels of MMP-1, MMP-9, MMP-12, and MMP-13 in UV-induced Hs27 human fibroblast cells. Cells were preincubated with or without 1 and 10 μM BHCP for 24 h and were stimulated with UV (50 mJ/cm^2) for an additional 24 h. Harvested cells were lysed and then examined for the expression levels of MMP-1, MMP-9, MMP-12, and MMP-13 by Western blotting (a); The protein levels of MMP-1 (b); MMP-9 (c); MMP-12 (d); and MMP-13 (e) were quantitated with CS analyzer software. MMP-1, MMP-9, MMP-12, and MMP-13 protein levels were normalized by β-actin. Data are expressed as mean ± S.E.M. of three independent experiments. ^# p < 0.05 versus untreated control; * p < 0.05 versus UV stimulation.
as §3

p65 = experiment: Western blot, cytosol p65 in UV-induced Hs27 cells; assay type: cell-based, human; conditions: 1 and 10 µM, 24 h, then UV (50 mJ/cm2) 24 h; normalized to β-actin
Protocol: (§5) Figure 6 Effects of BHCP on the expression levels of p-p65 (Ser536) in UV-induced Hs27 human fibroblast cells. Cells were preincubated with or without 1 and 10 μM BHCP for 24 h and were stimulated with UV (50 mJ/cm^2) for an additional 24 h. Nuclear protein levels of p-p65 (Ser536) were determined by Western blotting (a); After normalization to TFIIB, relative ratios were quantitated with CS analyzer software (b); Cytosol protein levels of p65 was determined by Western blotting (c); After normalization to β-actin, ratios were quantitated with CS analyzer software (d). Data are expressed as mean ± S.E.M. of three independent experiments. ^# p < 0.05 versus untreated control; * p < 0.05 and ** p < 0.01 versus […].
(§6) The Hs27 cells were washed with ice-cold PBS and harvested. […]
(§7) Lysate samples were boiled for 10 min in gel-loading buffer (125 mM Tris-HCl, 4% sodium dodecyl sulfate (SDS), 10% 2-mercaptoethanol, and 0.2% bromophenol blue; pH 6.8) at a volume ratio of 1:1. […] Antibody labeling was detected by enhanced chemiluminescence in accordance with the manufacturer’s instructions. Protein quantitation was performed using the Davinch-Chemi TM. […]

tyrosinase = experiment: Western blot, tyrosinase protein level in α-MSH-stimulated B16F10 cells; assay type: cell-based, murine; conditions: 1 and 10 µM, 24 h, then α-MSH (5 µM) 48 h; normalized by β-actin
Protocol: as §2, §3

MMP-13 = experiment: Western blot, MMP-13 expression in UV-induced Hs27 cells; assay type: cell-based, human; conditions: 1 and 10 µM, 24 h, then UV (50 mJ/cm2) 24 h
Protocol: as §4, §3

B16F10 melanoma cells [2] = experiment: Cell viability, EZ-Cytox assay, B16F10; assay type: cell-based, murine; conditions: up to 10 µM, 48 h
Protocol: (§8) Figure 3 Cell viability of BHCP on B16F10 melanoma (a) and Hs27 fibroblast cells (b). Cells were treated with various concentrations (0–10 μM) of BHCP for 24 h and 48 h, respectively, and cell viability was measured by EZ-Cytox assay.
(§9) The viability of cells was assessed using the EZ-Cytox kit assay. In brief, B16F10 cells and Hs27 fibroblasts were seeded into a 96-well plate at a density of 1 × 10^4 cells/well and incubated at 37 °C for 24 h. The cells were fed fresh, serum-free DMEM that contained different concentrations (0, 1, 2, 5, and 10 µM) of BHCP, and incubated for 24 and 48 h. Subsequently, 10 μL of EZ-Cytox solution was loaded into each well and the cells were incubated for 2–4 h. The absorbance measurement of cells in the absence of any treatment was regarded as 100% cell survival. Each treatment was performed in triplicate and each experiment was repeated three times.

[3] = target: Mushroom tyrosinase (EC 1.14.18.1) (Agaricus bisporus, UniProt C7FF04); experiment: Kinetic analysis of tyrosinase inhibition (Lineweaver-Burk and Dixon plots); assay type: biochemical; conditions: Lineweaver-Burk plot
Description: Furthermore, the mechanism responsible for tyrosinase inhibition by BHCP was investigated by enzyme kinetic analysis in the present study (Table 1 and Figure 2). Lineweaver–Burk plots were drawn using the data obtained from the kinetic studies, and the inhibition constant (Ki) was obtained from the Dixon plots. The Lineweaver–Burk double reciprocal plots indicated competitive-type inhibition. […] Moreover, intercepts on the x-axis of Dixon plots are commonly used to determine the types of enzyme inhibition constants (Ki) for an enzyme–inhibitor complex, where the value of the x-axis indicates the value of −Ki.
Figure 2 Lineweaver–Burk (a,c) and Dixon (b,d) plots for tyrosinase enzyme inhibition by BHCP. […]
To determine the kinetic mechanisms, two kinetic methods (Lineweaver–Burk and Dixon plots) were complementarily used. For the Lineweaver–Burk double reciprocal plots (a plot of 1/enzyme velocity (1/V) versus 1/substrate concentration (1/[S])), the inhibition type was determined using various concentrations of L-tyrosine (1, 2, and 4 mM) and L-DOPA (0.5, 1, and 2 mM) as substrates in the presence of different concentrations of BHCP. […]

p-p65 (Ser536) = experiment: Western blot, nuclear p-p65 (Ser536) in UV-induced Hs27 cells; assay type: cell-based, human; conditions: 1 and 10 µM, 24 h, then UV (50 mJ/cm2) 24 h; normalized to TFIIB
Protocol: as §5, §6, §7

Hs27 fibroblast cells = experiment: Cell viability, EZ-Cytox assay, Hs27; assay type: cell-based, human; conditions: up to 10 µM, 48 h
Protocol: as §8, §9

MMP-1 = experiment: Western blot, MMP-1 expression in UV-induced Hs27 cells; assay type: cell-based, human; conditions: 1 and 10 µM, 24 h, then UV (50 mJ/cm2) 24 h
Protocol: as §4, §3

B16F10 melanoma cells [4] = experiment: Melanin content in α-MSH-induced B16F10 cells; assay type: cell-based, murine; conditions: 24 h pretreatment then α-MSH (5 µM) 48 h, α-MSH only control 186%
Protocol: as §1
The effect of BHCP on α-MSH-induced melanogenesis in B16F10 cells was based on a previously used method with slight modifications. Briefly, B16F10 cells (5 × 10^4 cells/well) in 6-well plates were allowed to grow to 70–80% confluence. […] After treatment, the cells were washed twice with ice-cold PBS, dissolved in 90 µL 1 M NaOH solution including DMSO (5%) at 60 °C for 1 h, and the absorbance was measured at 405 nm with a microplate spectrophotometer (TECAN, Salzburg, Austria). To measure the amount of melanin in the experiment, the rate of inhibition in the treatment groups were calculated from the absorbance of the known concentrations of synthetic melanin, which were corrected to the total amount of protein that was present in the supernatant of the cell lysates. The absorbance of untreated cells was measured in triplicate.

MMP-9 = experiment: Western blot, MMP-9 expression in UV-induced Hs27 cells; assay type: cell-based, human; conditions: 1 and 10 µM, 24 h, then UV (50 mJ/cm2) 24 h
Protocol: as §4, §3

p-CREB = experiment: Western blot, phosphorylation of CREB in α-MSH-stimulated B16F10 cells; assay type: cell-based, murine; conditions: 1 and 10 µM, 24 h, then α-MSH (5 µM) 48 h
Protocol: as §2, §3

Mushroom tyrosinase (EC 1.14.18.1), sequence (G1K3P4 entry or part of it): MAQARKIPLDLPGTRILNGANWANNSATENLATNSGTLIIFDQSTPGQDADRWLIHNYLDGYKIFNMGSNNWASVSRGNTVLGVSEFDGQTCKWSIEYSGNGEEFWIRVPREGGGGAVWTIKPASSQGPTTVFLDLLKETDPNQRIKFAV
Mushroom tyrosinase (EC 1.14.18.1), sequence (C7FF04 1-392): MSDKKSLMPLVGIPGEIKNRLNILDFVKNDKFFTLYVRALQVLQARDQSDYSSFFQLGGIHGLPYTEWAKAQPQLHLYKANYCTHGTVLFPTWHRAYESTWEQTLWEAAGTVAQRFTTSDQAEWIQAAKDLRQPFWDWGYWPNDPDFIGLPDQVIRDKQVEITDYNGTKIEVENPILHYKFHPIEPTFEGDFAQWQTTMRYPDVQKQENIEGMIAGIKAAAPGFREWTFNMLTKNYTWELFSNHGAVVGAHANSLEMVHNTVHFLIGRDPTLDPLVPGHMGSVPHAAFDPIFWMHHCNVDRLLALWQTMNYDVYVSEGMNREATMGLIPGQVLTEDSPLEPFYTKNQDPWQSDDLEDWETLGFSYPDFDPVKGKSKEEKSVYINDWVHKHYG

Compound | Cellular tyrosinase activity ([1]; 1 µM) | Cellular tyrosinase activity ([1]; 5 µM) | Cellular tyrosinase activity ([1]; 10 µM) | MITF protein level (MITF) | MMP-12 expression (MMP-12) | Total p65 in the cytoplasm (p65) | Tyrosinase protein level (tyrosinase) | MMP-13 expression (MMP-13) | Cell viability (survival) of B16F10 cells (B16F10 melanoma cells [2]) | Inhibition Type (L-DOPA) ([3]; substrate L-DOPA) | Inhibition Type (L-Tyrosine) ([3]; substrate L-tyrosine) | Nucleus p-p65 (Ser536) protein level (p-p65 (Ser536)) | Cell viability (survival) of Hs27 cells (Hs27 fibroblast cells) | MMP-1 expression (MMP-1) | Melanin content (B16F10 melanoma cells [4]; 1 µM) | Melanin content (B16F10 melanoma cells [4]; 5 µM) | Melanin content (B16F10 melanoma cells [4]; 10 µM) | MMP-9 expression (MMP-9) | Phosphorylation of CREB (p-CREB) | Cellular tyrosinase activity [1]
COc1ccc(/C=C2\CC/C(=C\c3ccc(OC)c(O)c3)C2=O)cc1O [BHCP, (2E,5E)-2,5-bis(3-hydroxy-4-methoxybenzylidene)cyclopentanone] | 120% | 116% | 105% | decreased these protein levels | decreased expression in a dose-dependent manner | restored | decreased these protein levels | decreased expression in a dose-dependent manner | did not reduce the survival | competitive inhibitor | competitive inhibitor | decreased | did not reduce the survival | decreased expression in a dose-dependent manner | 113% | 106% | 102% | decreased expression in a dose-dependent manner | significantly suppressed | –
O=c1cc(CO)occ1O [Kojic acid, reference compound] | – | – | – | – | – | – | – | – | – | – | – | – | – | – | – | – | – | – | – | 131%
